According to paper PMC9486168, “Protein-protein interaction-based high throughput screening for adenylyl cyclase 1 inhibitors: Design, implementation, and discovery of a novel chemotype” (Frontiers in Pharmacology, 2022):
Where two headings read alike, the source gives them in different places.

What was measured:
CaM = target: T1, CaM (Homo sapiens, UniProt P0DP23); assay: 1H-15N HSQC NMR of 15N-CaM with compound; format: binding; details: 5 equivalent molar excess over 100 μM CaM
T1 construct: 6X-His-GST (N, cleaved yes); made in house; host or cells: E. coli BL21-CodonPlus (DE3)-RIPL in M9 minimal media with 15NH4Cl
Method: All NMR samples contained 100 μM ^15N-CaM in 20 mM HEPES pH 7.4, 100 mM KCl, 10 mM CaCl2, 10% D2O, and 5% DMSO. Initial spectra were collected for CaM alone before individual compounds were titrated to observe chemical shift perturbations. All spectra were acquired at 298 K using a 600 MHz Bruker Avance NEO NMR spectrometer with a triple resonance gradient cryoprobe. NMR spectra were processed using NMRPipe and analyzed using NMRFAM-SPARKY.

AC1 = target: T2, AC1 (Homo sapiens, UniProt Q08828); assay: cAMP accumulation assay, AC1-HEK Δ3/6 KO cells; format: cell-based
T2 construct: expressed in transfected cells
T2 sequence (Q08828 whole entry): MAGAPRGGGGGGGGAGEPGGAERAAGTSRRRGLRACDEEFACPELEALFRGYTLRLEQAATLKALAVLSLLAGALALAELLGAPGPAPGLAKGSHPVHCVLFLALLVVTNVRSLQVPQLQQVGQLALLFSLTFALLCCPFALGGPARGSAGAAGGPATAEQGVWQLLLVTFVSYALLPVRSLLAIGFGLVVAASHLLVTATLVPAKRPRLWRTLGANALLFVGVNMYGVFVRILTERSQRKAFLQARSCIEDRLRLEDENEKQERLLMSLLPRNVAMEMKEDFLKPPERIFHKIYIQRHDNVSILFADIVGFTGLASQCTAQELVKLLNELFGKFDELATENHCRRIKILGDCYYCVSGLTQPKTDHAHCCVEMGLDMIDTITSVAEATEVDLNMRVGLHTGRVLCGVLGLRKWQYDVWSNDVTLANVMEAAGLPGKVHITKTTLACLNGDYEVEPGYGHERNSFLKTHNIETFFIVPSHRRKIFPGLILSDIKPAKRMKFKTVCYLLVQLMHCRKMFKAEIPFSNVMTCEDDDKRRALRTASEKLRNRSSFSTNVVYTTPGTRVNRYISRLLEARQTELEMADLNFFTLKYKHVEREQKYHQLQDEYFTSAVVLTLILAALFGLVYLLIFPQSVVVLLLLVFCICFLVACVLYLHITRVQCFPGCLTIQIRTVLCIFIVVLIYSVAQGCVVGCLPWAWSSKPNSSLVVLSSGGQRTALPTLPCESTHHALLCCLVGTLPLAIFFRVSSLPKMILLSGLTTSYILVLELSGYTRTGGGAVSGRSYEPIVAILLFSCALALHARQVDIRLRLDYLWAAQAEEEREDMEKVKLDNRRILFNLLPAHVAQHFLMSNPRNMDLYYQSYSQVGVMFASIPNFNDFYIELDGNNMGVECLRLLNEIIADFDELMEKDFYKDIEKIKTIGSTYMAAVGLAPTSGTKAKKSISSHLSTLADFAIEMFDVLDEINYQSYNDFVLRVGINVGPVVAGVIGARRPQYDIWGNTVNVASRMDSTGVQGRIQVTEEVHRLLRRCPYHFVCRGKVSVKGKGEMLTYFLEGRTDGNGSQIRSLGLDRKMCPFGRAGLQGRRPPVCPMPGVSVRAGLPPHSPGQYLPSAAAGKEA
Method: Cells were then incubated for 1 h at 37°C and 5% CO2. Cells were then treated with varying concentrations of inhibitors for 30 min, followed by treatment with calcium ionophore A23187 (3 μM) in 500 μM 3-isobutyl-1-methylxanthine (IBMX), a phosphodiesterase inhibitor, for 1 h at RT (Sigma Aldrich, St. Louis, MO). Finally, Cisbio HTRF detection reagents were added and incubated for 1–24 h at RT. Plates were read according to manufacturer’s protocol on an HTRF-compatible plate reader at 620 and 665 nm cAMP concentrations were interpolated from a cAMP standard curve. […] For cytotoxicity assays, compounds were tested at 30 μM and this protocol was used with the exception of detection reagents; CellTiter-Glo 2.0 reagent was used according to manufacturer’s protocol and luminescence was read on the Synergy Neo2 plate reader. Data are normalized to cells treated with vehicle (100%) or 2% tween (0%) and are represented as the percent of vehicle, from the average of three independent experiments (N = 3).

[1] = Cytotoxicity assay (CellTiter-Glo 2.0) in AC1-HEK Δ3/6 KO cells; format: cell-based; details: human, percent of vehicle, read-out: % Viable Cells at AC1 30 μM
Method: (§1) Cryopreserved HEK293 cells with AC3 and AC6 knocked out, and stably expressing AC1, AC2, AC5, or AC8 (AC1-HEK Δ3/6 KO, AC2-HEK Δ3/6 KO, AC5-HEK Δ3/6 KO, or AC8-HEK Δ3/6 KO cells, respectively; [Soto-Velasquez et al., 2018]) were plated at 5,000 cells/well. Cells were then incubated for 1 h at 37°C and 5% CO2. Cells were then treated with varying concentrations of inhibitors for 30 min, followed by treatment with calcium ionophore A23187 (3 μM) in 500 μM 3-isobutyl-1-methylxanthine (IBMX), a phosphodiesterase inhibitor, for 1 h at RT (Sigma Aldrich, St. Louis, MO). Finally, Cisbio HTRF detection reagents were added and incubated for 1–24 h at RT. Plates were read according to manufacturer’s protocol on an HTRF-compatible plate reader at 620 and 665 nm cAMP concentrations were interpolated from a cAMP standard curve. […] For cytotoxicity assays, compounds were tested at 30 μM and this protocol was used with the exception of detection reagents; CellTiter-Glo 2.0 reagent was used according to manufacturer’s protocol and luminescence was read on the Synergy Neo2 plate reader. Data are normalized to cells treated with vehicle (100%) or 2% tween (0%) and are represented as the percent of vehicle, from the average of three independent experiments (N = 3).

AC8 = target: T3, AC8 (Homo sapiens, UniProt P40145); assay: cAMP accumulation assay, AC8-HEK Δ3/6 KO cells; format: cell-based; details: CDI analog SAR set, 3 μM A23187; read-out: IC50 (μM) ± SEM AC8
T3 construct: expressed in transfected cells
T3 sequence (P40145 whole entry, species assumed): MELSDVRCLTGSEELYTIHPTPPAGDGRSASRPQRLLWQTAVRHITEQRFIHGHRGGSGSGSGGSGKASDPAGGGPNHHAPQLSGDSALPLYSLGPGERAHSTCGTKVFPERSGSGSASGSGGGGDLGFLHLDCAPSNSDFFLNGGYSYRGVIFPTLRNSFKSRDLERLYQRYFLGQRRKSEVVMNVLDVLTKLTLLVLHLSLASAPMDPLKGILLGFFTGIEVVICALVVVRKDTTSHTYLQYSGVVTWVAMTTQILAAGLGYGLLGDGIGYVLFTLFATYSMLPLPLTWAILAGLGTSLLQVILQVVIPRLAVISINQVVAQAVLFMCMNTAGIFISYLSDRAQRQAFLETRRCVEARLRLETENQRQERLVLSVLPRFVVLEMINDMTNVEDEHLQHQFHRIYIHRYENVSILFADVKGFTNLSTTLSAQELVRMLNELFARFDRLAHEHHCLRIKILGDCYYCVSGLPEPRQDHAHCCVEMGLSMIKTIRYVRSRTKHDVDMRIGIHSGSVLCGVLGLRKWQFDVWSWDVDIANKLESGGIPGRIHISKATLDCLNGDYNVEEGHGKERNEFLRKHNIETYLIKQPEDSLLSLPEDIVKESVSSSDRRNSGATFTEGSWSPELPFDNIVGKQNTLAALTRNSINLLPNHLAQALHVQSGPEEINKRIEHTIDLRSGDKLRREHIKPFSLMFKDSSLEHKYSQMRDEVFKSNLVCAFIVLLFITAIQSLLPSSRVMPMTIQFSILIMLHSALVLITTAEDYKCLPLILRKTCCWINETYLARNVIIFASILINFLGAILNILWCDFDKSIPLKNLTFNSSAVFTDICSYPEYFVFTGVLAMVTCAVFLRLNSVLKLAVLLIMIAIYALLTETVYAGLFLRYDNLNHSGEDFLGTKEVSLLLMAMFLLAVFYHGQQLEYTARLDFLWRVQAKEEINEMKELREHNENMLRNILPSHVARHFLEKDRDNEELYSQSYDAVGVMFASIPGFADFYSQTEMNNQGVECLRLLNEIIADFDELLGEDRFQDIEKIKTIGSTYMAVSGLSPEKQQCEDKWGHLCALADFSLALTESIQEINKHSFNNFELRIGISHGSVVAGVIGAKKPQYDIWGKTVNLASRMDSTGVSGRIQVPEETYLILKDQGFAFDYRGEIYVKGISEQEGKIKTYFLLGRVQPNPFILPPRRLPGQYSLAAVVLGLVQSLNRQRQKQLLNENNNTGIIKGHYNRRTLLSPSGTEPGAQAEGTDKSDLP
Method: as §1

AC5 = target: T4, AC5 (Homo sapiens, UniProt O95622); assay: cAMP accumulation assay, AC5-HEK Δ3/6 KO cells; format: cell-based; details: read-out: % Inhibited at AC5 ± SEM
T4 construct: expressed in transfected cells
T4 sequence (O95622 whole entry, species assumed): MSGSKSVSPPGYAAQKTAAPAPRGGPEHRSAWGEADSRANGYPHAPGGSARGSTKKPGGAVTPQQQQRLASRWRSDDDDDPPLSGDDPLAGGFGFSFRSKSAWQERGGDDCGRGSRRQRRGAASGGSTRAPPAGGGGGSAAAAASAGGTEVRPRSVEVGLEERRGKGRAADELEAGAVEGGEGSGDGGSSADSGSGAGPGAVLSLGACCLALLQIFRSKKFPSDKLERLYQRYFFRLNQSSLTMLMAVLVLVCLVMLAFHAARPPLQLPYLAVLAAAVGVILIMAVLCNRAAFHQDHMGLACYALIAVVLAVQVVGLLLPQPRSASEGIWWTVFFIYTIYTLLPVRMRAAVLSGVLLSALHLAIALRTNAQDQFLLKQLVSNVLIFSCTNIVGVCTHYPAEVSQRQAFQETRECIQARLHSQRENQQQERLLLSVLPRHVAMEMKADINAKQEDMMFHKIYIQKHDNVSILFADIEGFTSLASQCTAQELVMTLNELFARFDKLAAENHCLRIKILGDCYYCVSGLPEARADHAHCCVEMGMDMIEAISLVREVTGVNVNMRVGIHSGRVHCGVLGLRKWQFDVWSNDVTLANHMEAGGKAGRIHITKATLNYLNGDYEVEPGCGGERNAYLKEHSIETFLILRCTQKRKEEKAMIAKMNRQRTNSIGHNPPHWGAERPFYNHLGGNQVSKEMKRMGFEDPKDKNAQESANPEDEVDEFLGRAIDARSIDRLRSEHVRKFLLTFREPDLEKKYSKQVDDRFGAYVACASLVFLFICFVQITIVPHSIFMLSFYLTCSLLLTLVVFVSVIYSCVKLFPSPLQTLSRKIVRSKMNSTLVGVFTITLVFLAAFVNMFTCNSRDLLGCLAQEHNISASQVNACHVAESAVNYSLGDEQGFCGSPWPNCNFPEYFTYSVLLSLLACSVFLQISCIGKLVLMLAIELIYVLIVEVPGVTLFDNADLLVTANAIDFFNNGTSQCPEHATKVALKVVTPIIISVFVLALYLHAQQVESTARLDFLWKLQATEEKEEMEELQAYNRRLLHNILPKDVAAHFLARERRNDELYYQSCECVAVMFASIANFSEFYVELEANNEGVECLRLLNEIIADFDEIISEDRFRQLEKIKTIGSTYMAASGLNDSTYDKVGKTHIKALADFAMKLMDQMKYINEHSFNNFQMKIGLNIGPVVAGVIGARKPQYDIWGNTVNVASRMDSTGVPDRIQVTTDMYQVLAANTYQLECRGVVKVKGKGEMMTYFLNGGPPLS
Method: as §1

AC1/CaM PPI = target: T5, AC1/CaM PPI (Homo sapiens, UniProt P0DP23); assay: AC1/CaM NanoBiT assay in HEK293T cells; format: cell-based
T5 construct: human AC1 (hAC1) residues 1–1,118 were cloned; The hCaM residues 1–149, residues 1–1,248 of rat AC8 (rAC8); expressed in transfected cells; host or cells: HEK293T, transient transfection

AC8/CaM PPI = target: T6, AC8/CaM PPI (Homo sapiens, UniProt P0DP23); assay: AC8/CaM NanoBiT assay in HEK293T cells; format: cell-based, rat
T6 construct: confirmed as an AC1/AC8 non-selective hit against full-length AC1- and AC8-CaM in the NanoBiT assay; The hCaM residues 1–149, residues 1–1,248 of rat AC8 (rAC8); expressed in transfected cells; host or cells: HEK293T, transient transfection

[2] = CellTiter-Glo 2.0 cell viability assay; format: cell-based; details: human, HEK293T cells, pH 7.4; at the compound's AC1/CaM NanoBiT IC50 concentration; read-out: % Viable Cells at AC1 IC50;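 also: luminescence read-out after 30 min compound exposure at 37 °C in HEPES-buffered HBSS, scaled to vehicle-treated cells as 100% and cell-free buffer wells as 0%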
HEK293T cells = assay: CellTiter-Glo 2.0 cell viability assay; format: cell-based; details: ∼300 μM;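 also: luminescence read-out after 30 min compound exposure at 37 °C in HEPES-buffered HBSS, scaled to vehicle-treated cells as 100% and cell-free buffer wells as 0%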
AC8-Nt/CaM = target: T7, AC8-Nt/CaM (Homo sapiens, UniProt P0DP23); assay: AC8-Nt/CaM FP counterscreen assay; format: binding;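 also: fluorescence polarization of AC peptide binding GST-CaM in HEPES buffer with CaCl2, compound preincubated with CaM 30 min, peptide read after 2 h at room temperature in dark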
T7 construct: made in house; host or cells: E. coli BL21-CodonPlus (DE3)-RIPL

AC2 = target: T8, AC2 (Homo sapiens, UniProt Q08462); assay: cAMP accumulation assay, AC2-HEK Δ3/6 KO cells; format: cell-based; details: read-out: % Inhibited at AC2 ± SEM
T8 construct: expressed in transfected cells
T8 sequence (Q08462 whole entry): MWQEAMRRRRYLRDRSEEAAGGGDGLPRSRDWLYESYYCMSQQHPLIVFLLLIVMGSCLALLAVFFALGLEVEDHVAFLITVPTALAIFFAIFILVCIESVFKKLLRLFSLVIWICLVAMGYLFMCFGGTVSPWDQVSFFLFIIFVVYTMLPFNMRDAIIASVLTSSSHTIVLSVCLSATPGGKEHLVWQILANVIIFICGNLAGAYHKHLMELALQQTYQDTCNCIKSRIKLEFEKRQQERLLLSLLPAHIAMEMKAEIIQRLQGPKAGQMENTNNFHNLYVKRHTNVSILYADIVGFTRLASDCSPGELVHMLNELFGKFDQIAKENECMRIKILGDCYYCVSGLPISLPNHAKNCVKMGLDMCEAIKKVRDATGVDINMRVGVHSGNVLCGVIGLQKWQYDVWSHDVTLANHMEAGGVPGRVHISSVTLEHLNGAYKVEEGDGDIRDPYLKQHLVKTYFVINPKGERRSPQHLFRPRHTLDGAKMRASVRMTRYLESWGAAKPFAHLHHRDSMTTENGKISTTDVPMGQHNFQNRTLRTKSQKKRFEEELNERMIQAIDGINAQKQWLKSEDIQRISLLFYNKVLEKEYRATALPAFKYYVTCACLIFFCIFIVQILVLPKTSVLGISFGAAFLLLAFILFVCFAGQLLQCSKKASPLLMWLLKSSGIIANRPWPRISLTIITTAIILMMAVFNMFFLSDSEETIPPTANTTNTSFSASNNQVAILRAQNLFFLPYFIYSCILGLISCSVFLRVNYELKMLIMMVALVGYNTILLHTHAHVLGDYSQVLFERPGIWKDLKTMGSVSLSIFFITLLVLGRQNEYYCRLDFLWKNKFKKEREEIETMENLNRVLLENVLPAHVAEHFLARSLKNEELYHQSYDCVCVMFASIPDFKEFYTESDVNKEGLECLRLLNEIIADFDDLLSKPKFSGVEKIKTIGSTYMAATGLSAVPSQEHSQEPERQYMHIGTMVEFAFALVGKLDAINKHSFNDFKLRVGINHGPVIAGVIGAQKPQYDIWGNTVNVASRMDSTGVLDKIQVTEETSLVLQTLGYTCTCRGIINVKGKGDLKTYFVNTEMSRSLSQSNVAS
Method: as §1

AC1-C1b/CaM = target: T9, AC1-C1b/CaM (Homo sapiens, UniProt P0DP23); assay: AC1-C1b/CaM fluorescence polarization (FP) assay; format: binding
T9 construct: made in house; host or cells: E. coli BL21-CodonPlus (DE3)-RIPL

AC8-C2b/CaM = target: T10, AC8-C2b/CaM (Homo sapiens, UniProt P0DP23); assay: AC8-C2b/CaM FP counterscreen assay; format: binding;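 also: fluorescence polarization of AC peptide binding to GST-CaM in HEPES buffer with KCl and 50 µM CaCl2, compound preincubated 30 min with GST-CaM, DMSO and calmidazolium as controls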
T10 construct: made in house; host or cells: E. coli BL21-CodonPlus (DE3)-RIPL

[3] = Cheng-Prusoff from FP IC50 and Kd, n/i given where none
[4] = ratio >1: more potent in AC1/CaM FP

In the case of CCc1cc(C(c2cccs2)N2CCN(C)CC2)c(NC(=O)c2ccco2)s1 (stereo not shown) [Compound 15], the “chemical shift perturbations (CSP) of 15N-CaM” value (CaM) is reported as “several peaks were broadened by intermediate exchange and disappeared”, the IC50 (AC1; CDI analog SAR set, 3 μM A23187, read-out: IC50 (μM) ± SEM AC1) is reported as 4.36 ± 0.32 µM and the “inhibition of AC1 activity” value (AC1; CDI analog set, maximal inhibition of A23187 response) is reported as 100%. The “inhibition of AC1 activity (efficacy)” value (AC1; initial characterization of hits, data not shown) was ~75%, the IC50 (AC1; initial examination, 10,000 cells per well, 3 μM A23187, 1 h RT, read-out: AC1 IC50 ± SEM) was 4.88 ± 2.14 µM and the viability at 30 min, 30 μM [1] was 43%. For the same compound, the IC50 (AC8) was 3.9 ± 1.83 µM, the inhibition at 30 µM (AC5) was 47 ± 10% and the IC50 (AC1/CaM PPI; HEK293T, thapsigargin-stimulated, AUC, read-out: Nanobit: AC1-CaM IC50 (μM ± SEM)) was 26.1 ± 1.17 µM. The “inhibition of AC1-CaM interaction in NanoBiT” value (AC1/CaM PPI; full-length proteins) was 100%, the IC50 (AC8/CaM PPI; HEK293T, thapsigargin-stimulated, AUC, read-out: Nanobit: AC8-CaM IC50 (μM ± SEM)) was 33.3 ± 1.18 µM and the “inhibition of AC8-CaM interaction in NanoBiT” value (AC8/CaM PPI; full-length proteins) was 100%. The viability at 30 min [2] was 100%, the “cell viability at ∼300 μM” value (HEK293T cells) was “decrease in cell viability” and the “Ki (μM) AC8 NT” value (AC8-Nt/CaM; [3]) was “n/i”. The “Ki ratio (AC8 NT/AC1)” value (AC8-Nt/CaM; [4]) was “AC1 Selective”, the inhibition at 30 µM (AC2) was 59 ± 14% and the IC50 (AC1-C1b/CaM; 100 nM AC1-C1b, 100 nM GST-CaM, 95% CI in brackets) was 22.1 µM. The Ki (AC1-C1b/CaM; Cheng-Prusoff from FP IC50 and Kd) was 5.2 µM, the “AC1-CaM FP % inhib” value (AC1-C1b/CaM; relative to 100 μM CDZ (100% inhibition), highest concentration tested) was 58% and the “Ki (μM) AC8 C2b” value (AC8-C2b/CaM; [3]) was “n/i”. For the same compound, the “Ki ratio (AC8-C2b/AC1)” value (AC8-C2b/CaM; [4]) was “AC1 Selective”.
